Test results from article PMC11851430, “Workflow for E3 Ligase Ligand Validation for PROTAC Development” (ACS Chemical Biology, 2025).

Key:
Experiment in all cases: DSF assay
Assay type in all cases: binding
Details in all cases: 20 µM compound
GPRK5A = GPRK5A (Homo sapiens, UniProt P34947)
TLK1A = molecular target: T1, TLK1A (Homo sapiens, UniProt Q9UKI8)
T1 construct: purchased in-house DSF panel (SGC-style construct names; the trailing A/B is a construct suffix)
T1 sequence (Q9UKI8 456-734): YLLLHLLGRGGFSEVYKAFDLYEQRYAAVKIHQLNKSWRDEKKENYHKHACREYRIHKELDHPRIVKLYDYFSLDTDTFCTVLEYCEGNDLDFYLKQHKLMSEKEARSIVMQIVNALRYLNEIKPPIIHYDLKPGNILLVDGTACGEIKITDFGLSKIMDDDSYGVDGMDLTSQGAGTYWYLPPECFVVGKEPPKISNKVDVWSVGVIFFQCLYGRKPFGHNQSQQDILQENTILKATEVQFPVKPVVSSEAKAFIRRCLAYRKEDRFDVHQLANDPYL

EPHA2A = molecular target: T2, EPHA2A (Homo sapiens, UniProt P29317)
T2 construct: purchased in-house DSF panel (SGC-style construct names; the trailing A/B is a construct suffix)
T2 sequence (P29317 596-900): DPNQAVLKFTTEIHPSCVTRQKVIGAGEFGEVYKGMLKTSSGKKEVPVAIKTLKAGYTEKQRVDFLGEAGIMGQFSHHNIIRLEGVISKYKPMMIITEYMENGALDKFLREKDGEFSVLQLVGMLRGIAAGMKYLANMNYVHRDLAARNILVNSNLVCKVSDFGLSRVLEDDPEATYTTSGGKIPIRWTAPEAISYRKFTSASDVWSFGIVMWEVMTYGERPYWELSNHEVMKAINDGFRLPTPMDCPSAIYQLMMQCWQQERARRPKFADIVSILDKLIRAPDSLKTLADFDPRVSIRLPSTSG

ULK3A = molecular target: T3, ULK3A (Homo sapiens, UniProt Q6PHR2)
T3 construct: purchased in-house DSF panel (SGC-style construct names; the trailing A/B is a construct suffix)
T3 sequence (Q6PHR2 1-277): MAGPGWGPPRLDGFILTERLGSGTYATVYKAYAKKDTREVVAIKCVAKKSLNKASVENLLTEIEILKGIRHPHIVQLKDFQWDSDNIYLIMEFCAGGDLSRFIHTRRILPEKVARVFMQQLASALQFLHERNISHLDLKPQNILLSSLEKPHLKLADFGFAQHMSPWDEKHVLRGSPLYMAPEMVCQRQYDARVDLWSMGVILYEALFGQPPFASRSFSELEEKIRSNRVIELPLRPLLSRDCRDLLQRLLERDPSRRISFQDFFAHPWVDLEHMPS

STK17B = molecular target: T4, STK17B (Homo sapiens, UniProt O94768)
T4 construct: purchased in-house DSF panel (SGC-style construct names; the trailing A/B is a construct suffix)
T4 sequence (O94768 25-329): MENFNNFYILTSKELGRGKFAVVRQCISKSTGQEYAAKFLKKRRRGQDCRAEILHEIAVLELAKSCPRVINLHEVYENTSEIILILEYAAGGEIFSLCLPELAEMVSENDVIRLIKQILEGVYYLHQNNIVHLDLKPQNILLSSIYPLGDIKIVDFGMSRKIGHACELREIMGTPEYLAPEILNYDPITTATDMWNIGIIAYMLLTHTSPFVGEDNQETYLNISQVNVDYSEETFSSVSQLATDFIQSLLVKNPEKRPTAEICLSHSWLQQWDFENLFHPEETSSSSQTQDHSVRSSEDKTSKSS

MAPKAPK2A = molecular target: T5, MAPKAPK2A (Homo sapiens, UniProt P49137)
T5 construct: purchased in-house DSF panel (SGC-style construct names; the trailing A/B is a construct suffix)

VRK1A = molecular target: T6, VRK1A (Homo sapiens, UniProt Q99986)
T6 construct: purchased in-house DSF panel (SGC-style construct names; the trailing A/B is a construct suffix)
T6 sequence (Q99986 1-396): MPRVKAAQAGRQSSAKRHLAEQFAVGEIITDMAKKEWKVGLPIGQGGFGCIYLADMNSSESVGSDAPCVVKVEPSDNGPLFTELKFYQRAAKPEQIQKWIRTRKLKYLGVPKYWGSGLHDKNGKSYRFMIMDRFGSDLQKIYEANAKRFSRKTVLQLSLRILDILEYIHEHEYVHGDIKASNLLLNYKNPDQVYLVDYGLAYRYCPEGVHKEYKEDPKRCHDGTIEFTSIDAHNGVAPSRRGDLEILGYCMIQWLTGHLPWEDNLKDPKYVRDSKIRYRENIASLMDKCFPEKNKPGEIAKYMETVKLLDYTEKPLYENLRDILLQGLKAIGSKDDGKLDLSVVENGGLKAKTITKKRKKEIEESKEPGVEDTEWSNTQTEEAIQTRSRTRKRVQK

CHEK2A = molecular target: T7, CHEK2A (Homo sapiens, UniProt O96017)
T7 construct: purchased in-house DSF panel (SGC-style construct names; the trailing A/B is a construct suffix)

CAMK2BA = molecular target: T8, CAMK2BA (Homo sapiens, UniProt Q13554)
T8 construct: purchased in-house DSF panel (SGC-style construct names; the trailing A/B is a construct suffix)

DAPK1A = molecular target: T9, DAPK1A (Homo sapiens, UniProt P53355)
T9 construct: purchased in-house DSF panel (SGC-style construct names; the trailing A/B is a construct suffix)

DYRK1A = molecular target: T10, DYRK1A (Homo sapiens, UniProt Q13627)
T10 construct: purchased in-house DSF panel (SGC-style construct names; the trailing A/B is a construct suffix)

CAMKK2B = molecular target: T11, CAMKK2B (Homo sapiens, UniProt Q96RR4)
T11 construct: purchased in-house DSF panel (SGC-style construct names; the trailing A/B is a construct suffix)

NEK7A = molecular target: T12, NEK7A (Homo sapiens, UniProt Q8TDX7)
T12 construct: purchased in-house DSF panel (SGC-style construct names; the trailing A/B is a construct suffix)

STK6A = molecular target: T13, STK6A (Homo sapiens, UniProt O14965)
T13 construct: purchased in-house DSF panel (SGC-style construct names; the trailing A/B is a construct suffix)
T13 sequence (O14965 122-403): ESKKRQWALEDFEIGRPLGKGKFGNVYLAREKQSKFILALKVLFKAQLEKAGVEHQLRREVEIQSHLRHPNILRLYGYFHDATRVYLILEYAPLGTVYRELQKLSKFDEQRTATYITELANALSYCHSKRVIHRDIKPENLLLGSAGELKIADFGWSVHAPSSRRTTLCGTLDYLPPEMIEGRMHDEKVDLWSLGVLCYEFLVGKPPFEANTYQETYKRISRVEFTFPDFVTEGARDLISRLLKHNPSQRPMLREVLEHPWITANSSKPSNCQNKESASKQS

FLT1 = molecular target: T14, FLT1 (Homo sapiens, UniProt P17948)
T14 construct: purchased in-house DSF panel (SGC-style construct names; the trailing A/B is a construct suffix)
T14 sequence (P17948 801-1158): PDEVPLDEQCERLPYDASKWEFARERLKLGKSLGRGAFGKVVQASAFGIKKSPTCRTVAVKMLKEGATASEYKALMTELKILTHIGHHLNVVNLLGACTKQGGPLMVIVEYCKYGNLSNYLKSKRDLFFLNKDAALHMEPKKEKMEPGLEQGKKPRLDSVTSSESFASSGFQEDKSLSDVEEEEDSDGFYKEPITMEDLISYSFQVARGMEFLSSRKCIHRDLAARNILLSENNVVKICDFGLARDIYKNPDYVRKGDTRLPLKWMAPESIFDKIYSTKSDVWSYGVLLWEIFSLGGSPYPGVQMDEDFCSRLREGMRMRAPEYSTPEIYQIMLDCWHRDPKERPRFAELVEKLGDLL

T8 sequence (Q13554 11-303): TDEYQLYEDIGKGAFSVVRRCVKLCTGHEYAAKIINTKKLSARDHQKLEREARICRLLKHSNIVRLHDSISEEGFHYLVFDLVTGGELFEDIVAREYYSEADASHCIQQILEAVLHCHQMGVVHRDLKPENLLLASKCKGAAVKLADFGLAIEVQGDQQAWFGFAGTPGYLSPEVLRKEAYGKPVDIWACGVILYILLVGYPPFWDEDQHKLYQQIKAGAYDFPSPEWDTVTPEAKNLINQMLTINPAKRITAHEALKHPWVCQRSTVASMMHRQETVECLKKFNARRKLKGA
T9 sequence (P53355 1-285): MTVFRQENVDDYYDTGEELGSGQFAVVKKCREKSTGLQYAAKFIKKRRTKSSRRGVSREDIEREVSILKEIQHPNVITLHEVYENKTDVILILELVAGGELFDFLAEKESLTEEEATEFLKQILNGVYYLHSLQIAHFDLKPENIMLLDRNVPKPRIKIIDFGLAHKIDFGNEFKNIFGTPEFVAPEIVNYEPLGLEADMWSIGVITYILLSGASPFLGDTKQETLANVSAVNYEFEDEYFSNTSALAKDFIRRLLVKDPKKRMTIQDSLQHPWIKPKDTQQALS
T7 sequence (O96017 210-531): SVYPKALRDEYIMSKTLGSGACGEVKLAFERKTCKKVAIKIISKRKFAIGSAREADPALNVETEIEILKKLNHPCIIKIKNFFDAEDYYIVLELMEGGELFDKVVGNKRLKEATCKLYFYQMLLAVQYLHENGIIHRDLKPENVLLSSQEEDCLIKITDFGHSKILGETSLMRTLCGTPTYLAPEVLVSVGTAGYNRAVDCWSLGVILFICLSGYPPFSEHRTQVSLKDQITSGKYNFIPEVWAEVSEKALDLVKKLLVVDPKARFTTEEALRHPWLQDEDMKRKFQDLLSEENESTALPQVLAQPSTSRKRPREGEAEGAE
T5 sequence (P49137 64-325): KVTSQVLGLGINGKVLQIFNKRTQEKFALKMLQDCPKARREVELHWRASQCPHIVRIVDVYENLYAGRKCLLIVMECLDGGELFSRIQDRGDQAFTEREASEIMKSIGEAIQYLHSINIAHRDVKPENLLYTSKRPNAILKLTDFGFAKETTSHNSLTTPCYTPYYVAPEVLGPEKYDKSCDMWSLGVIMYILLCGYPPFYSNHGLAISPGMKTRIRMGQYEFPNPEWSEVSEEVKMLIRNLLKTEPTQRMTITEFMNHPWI
T11 sequence (Q96RR4 161-449): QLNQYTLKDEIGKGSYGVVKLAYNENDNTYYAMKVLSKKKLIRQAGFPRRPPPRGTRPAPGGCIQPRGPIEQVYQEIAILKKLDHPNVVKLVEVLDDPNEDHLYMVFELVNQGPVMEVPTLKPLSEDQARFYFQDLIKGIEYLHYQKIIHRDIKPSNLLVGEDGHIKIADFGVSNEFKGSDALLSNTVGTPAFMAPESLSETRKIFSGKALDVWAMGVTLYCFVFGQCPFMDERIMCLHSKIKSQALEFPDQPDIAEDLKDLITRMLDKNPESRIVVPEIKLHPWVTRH
T12 sequence (Q8TDX7 34-299): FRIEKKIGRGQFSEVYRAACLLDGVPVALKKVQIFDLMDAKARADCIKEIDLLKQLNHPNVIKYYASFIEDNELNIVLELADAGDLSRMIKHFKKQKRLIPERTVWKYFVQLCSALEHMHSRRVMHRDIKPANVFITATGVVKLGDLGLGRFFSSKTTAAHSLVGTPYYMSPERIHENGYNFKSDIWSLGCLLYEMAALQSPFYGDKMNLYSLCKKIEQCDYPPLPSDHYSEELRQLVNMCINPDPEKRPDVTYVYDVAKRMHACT
Chain of GPRK5A (P34947 186-514 limits assumed): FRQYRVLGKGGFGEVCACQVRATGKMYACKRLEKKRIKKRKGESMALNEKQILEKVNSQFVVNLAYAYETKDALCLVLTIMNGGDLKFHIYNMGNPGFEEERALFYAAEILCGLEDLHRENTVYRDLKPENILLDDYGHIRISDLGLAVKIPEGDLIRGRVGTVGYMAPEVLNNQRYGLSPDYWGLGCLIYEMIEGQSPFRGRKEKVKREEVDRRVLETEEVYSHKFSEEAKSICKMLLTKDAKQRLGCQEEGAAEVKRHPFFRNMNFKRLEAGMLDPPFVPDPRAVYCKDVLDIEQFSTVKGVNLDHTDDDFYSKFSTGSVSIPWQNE

SMILES | ΔTm at 20 µM (GPRK5A) [°C] | ΔTm at 20 µM (TLK1A) [°C] | ΔTm at 20 µM (EPHA2A) [°C] | ΔTm at 20 µM (ULK3A) [°C] | ΔTm at 20 µM (STK17B) [°C] | ΔTm at 20 µM (MAPKAPK2A) [°C] | ΔTm at 20 µM (VRK1A) [°C] | ΔTm at 20 µM (CHEK2A) [°C] | ΔTm at 20 µM (CAMK2BA) [°C] | ΔTm at 20 µM (DAPK1A) [°C] | ΔTm at 20 µM (DYRK1A) [°C] | ΔTm at 20 µM (CAMKK2B) [°C] | ΔTm at 20 µM (NEK7A) [°C] | ΔTm at 20 µM (STK6A) [°C] | ΔTm at 20 µM (FLT1) [°C]
CC(C)(C)OC(=O)NCCOCCOCCOCCOCCC(=O)N1CCN(c2cc(Nc3cc(C4CC4)[nH]n3)nc(Nc3ccc(CC#N)cc3)n2)CC1 [4-L] | 2.06 | 3.45 | 8.99 | 18.5 | 1.6 | 0.42 | 0.29 | 6.36 | -0.09 | 2.7 | 7.48 | 15.4 | 0.39 | 18.7 | 11.7
CC(C)(C)OC(=O)NCCCOCCOCCOCCCNC(=O)c1cc(Nc2cc(C3CC3)[nH]n2)nc(Nc2ccc(CC#N)cc2)n1 [5-L] | 2.55 | 4.52 | 4.48 | 13.3 | 1.81 | 0.95 | 0.51 | 5.41 | 0.97 | 1.49 | 8.01 | 10.7 | 0.5 | 12.2 | 8.06
CCOC(=O)c1cc(Nc2cc(C3CC3)[nH]n2)nc(Nc2ccc(CC#N)cc2)n1 [compound 5] | 1.7 | 5.4 | 6.12 | 15.4 | 2.58 | 0.53 | 0.7 | 4.17 | 1.15 | 3.22 | 6.85 | 9.77 | 0.0755 | 14.4 | 9.16
